Assay results reported in PubChem BioAssay (NCI).
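Grown in 96-well plates, cells were treated for 48 hours with each compound at five concentrations. Insufficient inhibition: endpoint recorded as highest concentration tested. GI50 is the concentration that inhibits growth by half. TGI marks complete inhibition of growth.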

Key:
Experiment in all cases: growth of human tumour cells (NCI), 48 h
[1] = tested on: RXF 393 renal
[2] = tested on: NCI/ADR-RES ovarian
[3] = tested on: OVCAR-3 ovarian
[4] = tested on: HOP-62 NSCLC
[5] = tested on: EKVX NSCLC
[6] = tested on: CCRF-CEM leukemia
[7] = tested on: SN12C renal
[8] = tested on: HCT-116 colon
[9] = tested on: HS 578T breast
[10] = tested on: HT29 colon

C=C(C)[C@@H]1CC[C@]2(CO)CC[C@]3(C)[C@H](CC[C@@H]4[C@@]5(C)CC[C@H](NCO)C(C)(C)[C@@H]5CC[C@]43C)[C@@H]12
GI50 [1]: 0.842 µM | TGI [1]: 1.57 µM | GI50 [2]: 0.894 µM | TGI [2]: 1.72 µM | GI50 [3]: 0.88 µM | TGI [3]: 1.61 µM | GI50 [4]: 0.862 µM | TGI [4]: 1.74 µM | GI50 [5]: 0.869 µM | TGI [5]: 1.64 µM | GI50 [6]: 1.02 µM | TGI [6]: 3.21 µM | GI50 [7]: 0.79 µM | TGI [7]: 1.5 µM

CC(C)=NOC(=O)Nc1cccc2c1OCO2
TGI [1]: > 100 µM | TGI [2]: > 100 µM | TGI [3]: > 100 µM | TGI [4]: > 100 µM | TGI [5]: > 100 µM | TGI [8]: > 100 µM | TGI [7]: > 100 µM | TGI [9]: > 100 µM | TGI [10]: > 100 µM

O=C1c2cc([N+](=O)[O-])sc2C(=O)c2c([N+](=O)[O-])csc21
TGI [1]: 1.76 µM | TGI [2]: 4.16 µM | TGI [5]: 3.4 µM | TGI [6]: 0.389 µM | TGI [8]: 1.78 µM | TGI [7]: 1.09 µM

COC(=O)c1cc(/C=C\c2cc(OC)ccc2OC)ccc1OC
TGI [2]: > 100 µM | TGI [3]: 65.8 µM | TGI [4]: 77.1 µM | TGI [5]: 88.9 µM | TGI [6]: > 100 µM | TGI [8]: > 100 µM | TGI [7]: > 100 µM | TGI [9]: > 100 µM | TGI [10]: > 100 µM

O=C1CC(c2ccccc2)S(=O)c2ccccc2N1 (configuration not stated)
TGI [2]: > 100 µM | TGI [3]: > 100 µM | TGI [4]: > 100 µM | TGI [5]: > 100 µM | TGI [6]: > 100 µM | TGI [8]: > 100 µM | TGI [7]: > 100 µM | TGI [9]: > 100 µM | TGI [10]: > 100 µM
